In patent US20040228889A1, “Use of N-arylmethylene ethylenediaminetriacetates, N-arylmethylene iminodiacetated or N,N'-diarylmethylene ethylenediamineacetates as doners of NO” (L'OREAL S.A., priority 2003, published 2004):

Assays:
[1] = test system: normal human keratinocytes; test: cytotoxicity, % diminution of the signal compared with the control; type: cell-based; conditions: concentration equal to or lower than 500 μM
Excerpt: Moreover, the cytotoxicity was expressed as % diminution of the signal compared with the control. A product was considered not to be very cytotoxic from 0-20%, acceptable up to 40% and not retained for values >40%.

[2] = target: T1, inducible NO synthase (NOS2) (Homo sapiens, UniProt P35228); test: screening test of the modulation of induction of NOS2 by normal human keratinocytes (nitrite and nitrate measurement); type: cell-based; conditions: for % inhibition: cytokine-induced normal human keratinocytes, nitrites and nitrates
T1 construct: endogenous in cells; host or cells: normal human keratinocytes (primary culture), induced with interferon-gamma and interleukin 1-beta
T1 sequence (P35228 whole entry): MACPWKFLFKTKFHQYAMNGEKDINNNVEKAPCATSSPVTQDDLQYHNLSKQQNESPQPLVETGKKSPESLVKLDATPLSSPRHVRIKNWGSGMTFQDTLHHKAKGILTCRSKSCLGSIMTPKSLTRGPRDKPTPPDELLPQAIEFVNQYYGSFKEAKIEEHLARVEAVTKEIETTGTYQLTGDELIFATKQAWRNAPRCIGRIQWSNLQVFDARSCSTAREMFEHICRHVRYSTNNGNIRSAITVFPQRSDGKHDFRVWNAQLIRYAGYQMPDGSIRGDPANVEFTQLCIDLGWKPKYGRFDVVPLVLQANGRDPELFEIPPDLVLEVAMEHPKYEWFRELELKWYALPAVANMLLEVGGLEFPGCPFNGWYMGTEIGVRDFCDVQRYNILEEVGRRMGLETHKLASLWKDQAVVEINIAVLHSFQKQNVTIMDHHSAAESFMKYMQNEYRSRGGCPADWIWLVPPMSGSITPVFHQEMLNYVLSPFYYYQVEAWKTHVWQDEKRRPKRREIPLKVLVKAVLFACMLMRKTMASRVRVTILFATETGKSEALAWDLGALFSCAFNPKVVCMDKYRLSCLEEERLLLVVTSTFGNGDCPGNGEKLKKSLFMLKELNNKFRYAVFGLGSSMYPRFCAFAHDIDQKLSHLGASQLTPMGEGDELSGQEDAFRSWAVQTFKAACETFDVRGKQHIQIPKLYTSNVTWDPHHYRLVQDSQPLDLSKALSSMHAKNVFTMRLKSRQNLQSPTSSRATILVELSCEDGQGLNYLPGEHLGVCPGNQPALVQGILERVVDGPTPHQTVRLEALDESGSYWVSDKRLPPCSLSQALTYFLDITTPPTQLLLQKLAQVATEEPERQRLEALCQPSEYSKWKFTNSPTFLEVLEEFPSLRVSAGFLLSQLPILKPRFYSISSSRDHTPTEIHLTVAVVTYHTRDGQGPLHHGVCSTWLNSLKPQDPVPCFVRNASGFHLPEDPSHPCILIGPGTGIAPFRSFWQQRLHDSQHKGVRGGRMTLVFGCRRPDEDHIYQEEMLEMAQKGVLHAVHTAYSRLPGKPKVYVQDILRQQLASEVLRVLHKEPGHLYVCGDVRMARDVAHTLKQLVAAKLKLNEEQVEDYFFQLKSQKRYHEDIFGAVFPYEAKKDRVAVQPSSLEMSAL
Method: The activity of N,N′-bis-(3,4,5-trimethoxybenzyl) ethylenediamine-diacetic acid on the inducible NO synthase was evaluated in the assay described by Heck et al. (J.B.C., vol. 267, No. 30, 21277-21280, 25 Oct. 1992), a screening test of the modulation of induction of NOS2 by normal human keratinocytes. The objective of this test is, briefly, to evaluate the concentration of nitrate and nitrite after stimulation of the NO-synthase 2.
The test is carried out on a culture of normal human keratinocytes, derived from samples taken. The induction of the inducible NO synthase (NOS2) was caused by the addition of a combination of several cytokines to the culture medium. The product tested was applied at three concentrations varying from 10 to 1000 μM.
The product tested was classed in one of the following two categories: inhibitor (I) or donor (D) of NO (nitric oxide) according to its capacity to diminish or increase, respectively, the quantity of nitrites and nitrates produced compared to the control signal […].
The following controls were introduced in the test:
A: positive control (induction of the enzyme): mixtures of interferon-γ(1000 u/ml) and interleukin 1-β (100 u/ml)
In order to determine the activity of the test product the quantity of stable NO reaction products (nitrites and nitrates) is measured with the aid of the “nitric colorimetric assay” kit sold by the Boehringer company under catalogue number 1756.28.
N,N′-bis(3,4,5-trimethoxybenzyl) ethylenediamine-diacetic acid was tested at concentrations of 100 μM, 500 μM and 1000 μM in ethanol.

Compound: COc1cc(CN(CCN(CC(=O)O)Cc2cc(OC)c(OC)c(OC)c2)CC(=O)O)cc(OC)c1OC [N,N′-bis-(3,4,5-trimethoxybenzyl) ethylenediamine-diacetic acid]
- cytotoxicity [1]: not toxic
- classification as inhibitor (I) or donor (D) of NO ([2]; quantity of nitrites and nitrates produced compared to the control signal): NO donor effect
- % inhibition ([2]; test product 100 μM in ethanol): 29%
- % inhibition ([2]; test product 500 μM in ethanol): 70%
- % inhibition ([2]; test product 1000 μM in ethanol): 84%
